Like-named read-outs stand apart in the source and are kept apart here.
What was measured:
[1] = test system: plasma protein; conditions: human plasma; 1 µM; mean ± SE
[2] = test system: Salmonella typhimurium TA 100; type: cell-based; conditions: pre-incubation
[3] = test system: Salmonella typhimurium TA 100; type: cell-based; conditions: plate incorporation
[4] = test system: Salmonella typhimurium TA 1535; type: cell-based; conditions: pre-incubation
[5] = test system: Salmonella typhimurium TA 1535; type: cell-based; conditions: plate incorporation
[6] = test system: Salmonella typhimurium TA 1537; experiment: Ames bacterial reverse mutation assay, plate incorporation method; type: cell-based
[7] = test system: Salmonella typhimurium TA 1537; experiment: Ames bacterial reverse mutation assay, pre-incubation method; type: cell-based
[8] = test system: Salmonella typhimurium TA 98; experiment: as above; type: cell-based
[9] = test system: Salmonella typhimurium TA 102; experiment: Ames bacterial reverse mutation assay, plate incorporation method; type: cell-based
[10] = test system: Salmonella typhimurium TA 98; experiment: as above; type: cell-based
[11] = test system: Salmonella typhimurium TA 102; experiment: Ames bacterial reverse mutation assay, pre-incubation method; type: cell-based
[12] = in vitro; conditions: both, human, plasma, pH 7.4
[13] = −S9, positive control 0.01 mg/plate
[14] = +S9, positive control 0.0025 mg/plate
[15] = +S9, positive control 0.01 mg/plate
[16] = −S9, positive control 4 µL/plate
[17] = −S9, positive control 0.05 mg/plate

## COc1ccc(CCN(C)CCCC(C#N)(c2ccc(OC)c(OC)c2)C(C)C)cc1OC (stereo not shown) [Verapamil, reference compound]
[1]
  fb (bound fraction): 0.907 ± 0.007

## [N-]=[N+]=[N-].[Na+] [sodium azide, reference compound]
[2]; [13]
  Mean plate counts (revertant colonies): 1181.3±50.6
[3]; [13]
  Mean plate counts (revertant colonies): 870.7±39.3
[4]; [13]
  Mean plate counts (revertant colonies): 974.7±41.1
[5]; [13]
  Mean plate counts (revertant colonies): 966.7±12.2

## Nc1ccc2cc3ccccc3cc2c1 [2-aminoanthracene, reference compound]
[2]; [14]
  Mean plate counts (revertant colonies): 1118.0±42.6
[6]; [14]
  Mean plate counts (revertant colonies): 133.3±8.1
[7]; [14]
  Mean plate counts (revertant colonies): 125.0±5.0
[8]; [14]
  Mean plate counts (revertant colonies): 958.0±83.6
[9]; [15]
  Mean plate counts (revertant colonies): 1716.7±134.6
[3]; [14]
  Mean plate counts (revertant colonies): 1042.0±61.3
[10]; [14]
  Mean plate counts (revertant colonies): 741.3±63.8
[4]; [14]
  Mean plate counts (revertant colonies): 132.7±9.9
[11]; [15]
  Mean plate counts (revertant colonies): 1395.3±153.1
[5]; [14]
  Mean plate counts (revertant colonies): 150.0±12.5

## CC(=O)CC(c1ccccc1)c1c(O)c2ccccc2oc1=O (stereo not shown) [Warfarin, reference compound]
[12]
  fraction unbound at 4 h, 1 µM: 0.035 ± 0.003

## COS(C)(=O)=O [methyl methanesulphonate, methyl methanesulfonate, reference compound]
[9]; [16]
  Mean plate counts (revertant colonies): 2510.7±123.6
[11]; [16]
  Mean plate counts (revertant colonies): 1238.7±126.0

## Nc1ccc([N+](=O)[O-])cc1N [4-NOPD, 4-nitro-o-phenylenediamine, reference compound]
[6]; [17]
  Mean plate counts (revertant colonies): 107.0±6.2
[7]; [17]
  Mean plate counts (revertant colonies): 120.0±12.0
[8]; [13]
  Mean plate counts (revertant colonies): 674.0±34.7
[10]; [13]
  Mean plate counts (revertant colonies): 296.0±8.0

Reference: article PMC6220894 (Food and chemical toxicology : an international journal …, 2018)
